# Measurements published in patent US12240854B2, “TRAF 6 inhibitors” (Helmholtz Zentrum München - Deutsches Forschungszentrum für …, priority 2018, dated 2025).
# Entries after “also recorded” stand apart in the source; their conditions may differ.
# How the values were obtained:
# [1] = biological target: T1, cIAP1 (Homo sapiens, UniProt Q13490); assay: In vitro ubiquitination assay, cIAP1 ubiquitin ligase kit; type: biochemical; conditions: K63 chain formation
# T1 construct: purchased Boston Biochem
# T1 sequence (Q13490 whole entry): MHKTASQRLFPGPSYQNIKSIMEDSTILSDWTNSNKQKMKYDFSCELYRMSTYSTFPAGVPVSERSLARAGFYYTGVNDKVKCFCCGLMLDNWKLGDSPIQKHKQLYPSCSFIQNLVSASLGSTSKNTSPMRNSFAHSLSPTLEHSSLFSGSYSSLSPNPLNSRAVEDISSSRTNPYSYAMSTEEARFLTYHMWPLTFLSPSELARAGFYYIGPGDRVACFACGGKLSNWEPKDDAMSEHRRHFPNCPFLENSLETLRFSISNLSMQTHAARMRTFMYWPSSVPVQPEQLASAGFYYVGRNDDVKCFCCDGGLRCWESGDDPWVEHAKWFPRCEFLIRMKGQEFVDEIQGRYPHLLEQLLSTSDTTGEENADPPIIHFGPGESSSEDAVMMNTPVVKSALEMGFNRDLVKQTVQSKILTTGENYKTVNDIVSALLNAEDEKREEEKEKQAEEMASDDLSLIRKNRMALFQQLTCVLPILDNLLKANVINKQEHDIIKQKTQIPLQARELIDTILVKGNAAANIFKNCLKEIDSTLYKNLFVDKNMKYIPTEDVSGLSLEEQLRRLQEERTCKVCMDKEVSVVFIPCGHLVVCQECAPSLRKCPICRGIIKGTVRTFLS
# Procedure: (§1) For analysis of cIAP1, MDM2, TRIM63, RNF4, ITCH and E6AP mediated poly-ubiquitination, the respective ubiquitin ligase kit from Boston Biochem (K-102, K-260, K-200B, K-220, K-240 and K-270) was used. Here, reaction buffer, E1, E2 and E3 enzyme (and p53 substrate in case of MDM2) were mixed and pre-incubated with compound or DMSO for 5 minutes at room temperature before adding Mg^2+-ATP and mono-ubiquitin for reaction start. Ubiquitination was visualized by Western Blot analyses.
# [2] = Pharmacokinetic studies (IV, PO, IP); type: in vivo
# Procedure: (§2) All ADME (plasma stability, plasma protein binding, microsomal stability, Log D, Caco-2 assay, CYP450 inhibition and hERG predictor assay) as well as pharmacokinetic studies (Tmax, Cmax, AUC0-240min, Mean Residence Time, Elimination half life, Elimination rate constant, Volume of Distribution and Clearance) of C25-140 (compound 3) were conducted by Bienta Enamine Biology Services of Bienta/Enamine Ltd.
# The inventors also tested the pharmacokinetics (PK) of C25-140 after intravenous (IV), peroral (PO) and intraperitoneal (IP) injection of each 10 mg/kg compound. All the analyzed data are summarized in FIG. 9B and the concentration/time-course graph for IP administration is shown in FIG. 9C.
# [3] = tested on: Collagen-Induced Arthritis (CIA) Model in DBA1/J mice; assay: Collagen-Induced Arthritis (CIA) model; type: in vivo, mouse
# Procedure: In order to test the potential of C25-140 to ameliorate RA symptoms, a Collagen-Induced Arthritis (CIA) Model in DBA1/J mice was performed by Washington Biotechnology, Inc. (Baltimore, USA). Each group of ten mice was subjected to a single subcutaneous injection of collagen/complete Freund's Adjuvant emulsion (0.05 ml/mouse; 100 μg collagen/CFA). After 20 days (day 21), mice were booster injected with collagen (0.05 ml/mouse; 100 μg/mouse collagen in Incomplete Freund's Adjuvant). On day 28, mice were scored for their Arthritic Index (AI) and 14 days intraperitoneally dosed twice daily with 6 mg/kg, 10 mg/kg and 14 mg/kg C25-140, respectively. Mice were scored of macroscopic signs of arthritis daily. Thereby, the following scoring index was applied to each individual paw: 0=no visible effects of arthritis; 1=edema and/or erythema of 1 digit; 2=edema and/or erythema of 2 digits; 3=edema and/or erythema of more than 2 digits; 4=severe arthritis of entire paw and digits. Single paw scores were added and recorded. On day 42, animals were euthanized, limbs were collected and histopathology was performed using Toluidine blue staining with scoring of several parameters.
# [4] = tested on: 24 different Ubiquitin reaction cascades (E2, E3 and substrate combinations); assay: Ubiquitin Profiler (Eurofins), single point; type: biochemical; conditions: 30 μM, 24 reactions
# Procedure: C25-140 was sent to Eurofins Pharma Discovery Services UK to perform a Single Point Ubiquitin Profiler testing of C25-140 effect at a concentration of 30 μM on 24 different Ubiquitin reaction cascades employing distinct combinations of E2, E3 and substrate. Each reaction was measured in duplicates. Cascade activity is expressed as a percentage of the mean cascade activity in the positive control samples. The positive control value is considered to be 100%, and all test samples are referred to this value.
# [5] = ADME: plasma protein binding; type: in vitro ADME
# Procedure: as §2
# [6] = tested on: p-IκBα (Ser32/36) in MEF cells; assay: ALPHASurefire p-IκBα / total IκBα in MEF cells; type: cell-based, mouse; conditions: IL-1β
# Procedure: In order to detect protein levels of p-IκBα (Ser32/36) as well as total IκBa, 1×10^4 MEF cells were seeded in 96-well plates, treated with compound for 6 hours and stimulated with 1 ng/ml IL-1β for 7 minutes. The p-IκBα and total IκBα protein levels were analyzed using the ALPHASurefire kits (PerkinElmer) following the manufacturer's instruction. The general 2-plate protocol was conducted.
# [7] = tested on: MEF cells; assay: CellTiter-Glo viability assay, MEF cells; type: cell-based, mouse; conditions: 6 or 24 hours incubation
# Procedure: For cell viability experiments using the CellTiter-Glo® 2.0 system (Promega), MEF cells (1.2×10^3 cells/well), HepG2 cells (4×10^3 cells/well) and Jurkat T-cells (5×10^3 cells/well) were seeded in 384 well plates. After 18 hours, cells were treated with compounds using the Sciclone G3 automation system. After 6 or 24 hours incubation, the luciferase measurement was performed according to the manufacturer's manual.
# [8] = tested on: HBL1 (ABC-DLBCL-MYD88 L265P); assay: Cell viability in DLBCL, HBL1; type: cell-based; conditions: HBL1, 30 μM, added at day 0, 4 and 8, 9 days
# Procedure: (§3) To determine the effects of C25-140 on MYD88-dependent ABC-DLBCL, we chose the HBL1 (ABC-DLBCL-MYD88 L265P), U2932 (ABC DLBCL-MYD88 wt) and BJAB (GCB DLBCL) cell lines. 1×10^6 cells of each cell line was seeded in 5 ml and treated with 30 μM compound C25-140 (compound 3) or DMSO. The entire experiment was carried out for 9 days. Every day 500 μl were taken and viable cell number was acquired using the ViCEII cell counter (Beckmann Coulter). At days 4 and 8 of the experiment the volume was again adjusted to 5 ml and samples were supplemented with 30 μM compound C25-140 or DMSO. This process was necessary to ensure linear proliferation of DMSO treated cells. All curves of C25-140 treated samples were referred to the corresponding DMSO treated controls.
# [9] = tested on: TRAF6 auto-ubiquitination in MEF cells; assay: Immunoprecipitation of TRAF6 for endogenous ubiquitination, MEF cells; type: cell-based, mouse
# Procedure: 2.5×10^6 MEF cells were seeded, treated with compound for 6 hours and stimulated with IL-1β (3.5 ng/mL) for 10 minutes. Cells were lysed in Co-IP lysis buffer containing 1% SDS to eliminate all cellular interactions. After cell lysis and removal of input samples, the samples were diluted to 0.1% SDS and incubated with 5 μL TRAF6 antibody EP591Y (Abcam) and immunoprecipitated with Protein-G-Sepharose beads. After washing of the beads in Co-IP wash buffer, TRAF6 protein was eluted and levels of TRAF6 ubiquitination were detected by Western Blot analysis.
# [10] = biological target: T2, RNF4 (Homo sapiens, UniProt P78317); assay: In vitro ubiquitination assay, RNF4 ubiquitin ligase kit; type: biochemical
# T2 construct: purchased Boston Biochem
# T2 sequence (P78317 whole entry): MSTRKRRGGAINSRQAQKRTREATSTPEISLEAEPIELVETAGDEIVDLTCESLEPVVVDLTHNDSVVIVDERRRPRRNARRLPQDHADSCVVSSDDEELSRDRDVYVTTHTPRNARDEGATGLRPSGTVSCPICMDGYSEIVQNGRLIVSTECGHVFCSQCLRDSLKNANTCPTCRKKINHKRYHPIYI
# Procedure: as §1
# [11] = tested on: BJAB (GCB DLBCL); assay: Cell viability in DLBCL, BJAB; type: cell-based; conditions: 30 μM, 9 days
# Procedure: as §3
compound,measurement,setting,value
"Cc1nn(-c2ccc3nnc(C)n3n2)c(C)c1CCC(=O)N1CCC(Cc2ccccc2)CC1 [Example C25-140, 1-(4-Benzylpiperidin-1-yl)-3-(3,5-dimethyl-1-(3-methyl-[1,2,4]-triazolo-[4,3-b]-pyridazin-6-yl)-1H-pyrazol-4-yl)-propan-1-one]",auto-ubiquitination of cIAP1,[1],indeed affected; also recorded: dose-dependently diminished
same,adverse effects on animals during the PK studies,"[2]; 10 mg/kg IV, PO, IP",no obvious adverse effects
same,in vivo half life (in words),"[2]; IV, PO, IP",moderate in vivo half life
same,initial distribution phase (in words),"[2]; IV, PO, IP",rapid initial distribution phase
same,bioavailability (in words),[2]; in vivo,good bioavailability
same,arthritic index (AI),"[3]; 6, 10 and 14 mg/kg IP twice daily, 14 days",dose-dependently reduced
same,RA symptoms / disease outcome (in words),[3]; CIA mouse model,ameliorates RA disease outcomes; also recorded: successfully counteracted clinical symptoms of RA and reversed the disease state; also recorded: eases symptoms
same,"histological score of the limbs (inflammation, pannus formation, cartilage damage, bone resorption)",[3]; day 42,dose-dependently improves RA symptoms; also recorded: attenuated
same,arthritic index (AI),[3]; doses of 10 mg/kg and 14 mg/kg IP twice daily,almost completely ameliorated the arthritic index to baseline levels
same,body weight,[3]; throughout the study,did not show any signs of reduction; also recorded: do not show any signs of weight loss
same,Ubiquitin Profiler cascade activity,[4],None of these reactions was inhibited; also recorded: None of the reactions is considerably inhibited
same,plasma protein binding,[5],decent good plasma protein binding capacity
same,"activity in cell-based ALPHASurefire (NF-κB activation, p-IκBα)",[6],improved inhibitory activity; also recorded: more active
same,metabolic activity and cell viability,[7],did not considerably impact cell viability; also recorded: does not considerably affect metabolic activity and cell viability up to 50 μM; also recorded: at the highest dose of 100 μM toxicity is noticeable
same,viability of MYD88-dependent ABC-DLBCL,[8],selectively kills ABC-DLBCL with chronic MYD88 signaling; also recorded: significantly reduced viability; also recorded: diminished
same,IL-1β-induced auto-ubiquitination of TRAF6,[9],reduced TRAF6 auto-ubiquitination
same,RNF4 auto-ubiquitination,[10],not influenced; also recorded: not affected
same,viability of GCB DLBCL,[11],did not show any difference in viability; also recorded: not affected
